Measurements from US20230192686A1, “1H-PYRROLO[2,3-B]PYRIDINES AND PREPARATION AND USES THEREOF” (BioSplice Therapeutics, Inc., priority 2021, published 2023).

Target: recombinant DYRK1A kinase (Homo sapiens, UniProt Q13627)
Assay: DYRK1A kinase assay (Ser/Thr 18 peptide Z-lyte FRET)
Format: biochemical
Details: DYRK1A kinase activity; 15 μM ATP, 4 μM Ser/Thr peptide 18, one hour at room temperature
Summary of the method: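 Recombinant DYRK1A at 0.25 μg/mL was incubated 1 h at room temperature with 15 μM ATP, 4 μM Ser/Thr 18 peptide and compound, in duplicate, 11-point series from 10 μM. Phosphorylation was read by Z-lyte FRET after 1 h protease development, as the coumarin/fluorescein emission ratio converted to % phosphorylation. IC50 by non-linear regression.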

EC50 [nM] | SMILES
4 | CN1CCN(c2cccc(Nc3ccc4c(-c5ccn6ncc(-c7cnn(C)c7)c6c5)c[nH]c4n3)c2)CC1 [Compound 1930, 3-(3-(1-Methyl-1H-pyrazol-4-yl)pyrazolo[1,5-a]pyridin-5-yl)-N-(3-(4-methylpiperazin-1-yl)phenyl)-1H-pyrrolo[2,3-b]pyridin-6-amine]
125 | CN1CCN(c2cccc(Nc3ccc4c(-c5ccc6c(c5)CCCO6)c[nH]c4n3)c2)CC1 [Compound 1945, 3-(Chroman-6-yl)-N-(3-(4-methylpiperazin-1-yl)phenyl)-1H-pyrrolo [2,3-]pyridin-6-amine]
38 | CN1CCN(c2cccc(Nc3ccc4c(-c5ccc6ncccc6c5)c[nH]c4n3)c2)CC1 [Compound 1950, N-(3-(4-Methylpiperazin-1-yl)phenyl)-3-(quinolin-6-yl)-1H-pyrrolo [2,3-b]pyridin-6-amine]
45 | Cc1nc2c(F)cc(-c3c[nH]c4nc(-c5cnn(C)c5)ccc34)cc2n1C(C)C [Compound 1963, 4-Fluoro-1-isopropyl-2-methyl-6-(6-(1-methyl-1H-pyrazol-4-yl)-1H-pyrrolo[2,3-b]pyridin-3-yl)-1H-benzo[d]imidazole]
10 | CN1CCC(NC(=O)c2cnn3ccc(-c4c[nH]c5nc(-c6cnn(C)c6)ccc45)cc23)CC1 [Compound 1976, 5-(6-(1-Methyl-1H-pyrazol-4-yl)-1H-pyrrolo[2,3-b]pyridin-3-yl)-N-(1-methylpiperidin-4-yl)pyrazolo[1,5-a]pyridine-3-carboxamide]
115 | CN1C2CCC1CN(C(=O)c1cnc3[nH]cc(-c4cc5ccncc5s4)c3c1)C2 [Compound 2041, (8-Methyl-3,8-diazabicyclo[3.2.1]octan-3-yl)(3-(thieno[2,3-c]pyridin-2-yl)-1H-pyrrolo[2,3-b]pyridin-5-yl)methanone]
345 | c1cn2cc(-c3c[nH]c4nc(C5CCC5)ccc34)ncc2n1 [Compound 2042, 6-(6-Cyclobutyl-1H-pyrrolo[2,3-b]pyridin-3-yl)imidazo[1,2-a]pyrazine]
36 | Cc1nc2c(F)cc(-c3c[nH]c4ncc(C(=O)O)cc34)cc2n1C(C)C [Compound 2043, 3-(4-Fluoro-1-isopropyl-2-methyl-1H-benzo[d]imidazol-6-yl)-1H-pyrrolo[2,3-b]pyridine-5-carboxylic acid]
3 | Cc1nc2c(F)cc(-c3c[nH]c4ncc(C(=O)N5CC6CCC(C5)N6C)cc34)cc2n1C(C)C [Compound 2044, (3-(4-Fluoro-1-isopropyl-2-methyl-1H-benzo[d]imidazol-6-yl)-1H-pyrrolo[2,3-b]pyridin-5-yl)(8-methyl-3,8-diazabicyclo[3.2.1]octan-3-yl)methanone]
36 | Cc1nc2c(F)cc(-c3c[nH]c4nc(C(C)C)ccc34)cc2n1C(C)C [Compound 2045, 4-Fluoro-1-isopropyl-6-(6-isopropyl-1H-pyrrolo[2,3-b]pyridin-3-yl)-2-methyl-1H-benzo[d]imidazole]
32 | COc1cnc2[nH]cc(-c3ccn4ncc(C(=O)N5CCN(C)CC5)c4c3)c2c1 [Compound 2047, (5-(5-Methoxy-1H-pyrrolo[2,3-b]pyridin-3-yl)pyrazolo[1,5-a]pyridin-3-yl)(4-methylpiperazin-1-yl)methanone]
2540 | CN1CCC(NC(=O)c2ccc3c(-c4ccc5ncnn5c4)c[nH]c3n2)CC1 [Compound 2048, 3-([1,2,4]Triazolo[1,5-a]pyridin-6-yl)-N-(1-methylpiperidin-4-yl)-1H-pyrrolo[2,3-b]pyridine-6-carboxamide]
45 | CN1C2CCC1CN(C(=O)c1cnc3[nH]cc(-c4ccn5nccc5c4)c3c1)C2 [Compound 2049, (8-Methyl-3,8-diazabicyclo[3.2.1]octan-3-yl)(3-(pyrazolo[1,5-a]pyridin-5-yl)-1H-pyrrolo[2,3-b]pyridin-5-yl)methanone]
159 | CN1CCN(C(=O)c2cnn3ccc(-c4c[nH]c5ncc(C(F)(F)F)cc45)cc23)CC1 [Compound 2050, (4-Methylpiperazin-1-yl)(5-(5-(trifluoromethyl)-1H-pyrrolo[2,3-b]pyridin-3-yl)pyrazolo[1,5-a]pyridin-3-yl)methanone]
37 | CN1CCN(c2ccc(CNc3ccnc4[nH]cc(-c5ccc6ncccc6c5)c34)cn2)CC1 [Compound 2051, N-((6-(4-Methylpiperazin-1-yl)pyridin-3-yl)methyl)-3-(quinolin-6-yl)-1H-pyrrolo[2,3-b]pyridin-4-amine]
34 | c1cnc2ccc(-c3c[nH]c4nccc(NCc5ccc(-n6ccnc6)nc5)c34)cc2c1 [Compound 2052, N-((6-(1H-Imidazol-1-yl)pyridin-3-yl)methyl)-3-(quinolin-6-yl)-1H-pyrrolo[2,3-b]pyridin-4-amine]
76 | c1cnc2ccc(-c3c[nH]c4nc(OCC5CC5)ccc34)cc2c1 [Compound 2053, 6-(6-(Cyclopropylmethoxy)-1H-pyrrolo[2,3-b]pyridin-3-yl)quinoline]
37 | c1cnc2ccc(-c3c[nH]c4nc(-c5cncs5)ccc34)cc2c1 [Compound 2055, 5-(3-(quinolin-6-yl)-1H-pyrrolo[2,3-b]pyridin-6-yl)thiazole]
5 | CN(CC(F)F)C(=O)c1cnc2ccc(-c3c[nH]c4nc(C5CC5)ccc34)cn12 [Compound 2056, 6-(6-cyclopropyl-1H-pyrrolo[2,3-b]pyridin-3-yl)-N-(2,2-difluoroethyl)-N-methylimidazo[1,2-a]pyridine-3-carboxamide]
